Reference: the Kinase Knowledgebase extract (Sharma et al. 2016)
pIC50: −log10 of the molar value. Several values for one entry are separate records, joined by “and”; a condition that tells them apart may be missing. Equal values may be shown once.

Legend:
PIK3CG (human) [1] = molecular target: PIK3CG (human) (UniProt P48736); test: Cell-Based Assay; conditions: u937
PIK3CA (human) = PIK3CA (human) (UniProt P42336); test: Enzyme Assay
PIK3CG (human) [2] = molecular target: PIK3CG (human) (UniProt P48736); test: Enzyme Assay
PIK3CD (Human) = PIK3CD (Human) (UniProt O00329); test: Enzyme Assay
PIK3CB (Human) = PIK3CB (Human) (UniProt P42338); test: Enzyme Assay
PIK3CG (human) [3] = molecular target: PIK3CG (human) (UniProt P48736); test: Cell-Based Assay; conditions: u937; remark: listed apart in the source

PIK3CA (human), sequence (P42336 whole entry, looked up): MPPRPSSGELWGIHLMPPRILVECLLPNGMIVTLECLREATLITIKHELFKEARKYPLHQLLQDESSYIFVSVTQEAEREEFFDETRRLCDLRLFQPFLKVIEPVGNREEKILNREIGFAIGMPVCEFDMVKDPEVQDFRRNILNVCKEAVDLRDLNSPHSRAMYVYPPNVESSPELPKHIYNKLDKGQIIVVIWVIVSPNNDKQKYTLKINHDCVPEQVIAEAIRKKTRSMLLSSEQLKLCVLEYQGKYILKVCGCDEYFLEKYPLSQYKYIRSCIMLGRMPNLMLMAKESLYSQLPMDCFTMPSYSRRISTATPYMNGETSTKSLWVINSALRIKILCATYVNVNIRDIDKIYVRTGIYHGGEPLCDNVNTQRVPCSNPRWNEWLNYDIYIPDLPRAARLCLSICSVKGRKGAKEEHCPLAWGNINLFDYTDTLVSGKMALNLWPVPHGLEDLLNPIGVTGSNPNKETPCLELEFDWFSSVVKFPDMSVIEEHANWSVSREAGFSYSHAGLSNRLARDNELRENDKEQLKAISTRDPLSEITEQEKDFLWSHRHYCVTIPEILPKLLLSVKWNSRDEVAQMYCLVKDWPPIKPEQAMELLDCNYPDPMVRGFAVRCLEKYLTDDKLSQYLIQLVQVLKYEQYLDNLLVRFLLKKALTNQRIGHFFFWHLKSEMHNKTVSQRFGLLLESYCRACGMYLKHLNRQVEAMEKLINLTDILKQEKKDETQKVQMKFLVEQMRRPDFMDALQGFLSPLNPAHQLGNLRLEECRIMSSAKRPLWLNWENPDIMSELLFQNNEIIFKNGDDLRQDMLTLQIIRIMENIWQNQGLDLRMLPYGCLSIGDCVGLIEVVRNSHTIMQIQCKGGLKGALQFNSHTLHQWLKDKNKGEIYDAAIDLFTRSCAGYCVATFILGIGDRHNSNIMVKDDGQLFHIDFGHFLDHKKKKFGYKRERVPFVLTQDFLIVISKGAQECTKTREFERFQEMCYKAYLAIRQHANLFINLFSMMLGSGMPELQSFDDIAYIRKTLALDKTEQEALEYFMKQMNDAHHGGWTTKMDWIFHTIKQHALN
PIK3CD (Human), sequence (O00329 whole entry, looked up): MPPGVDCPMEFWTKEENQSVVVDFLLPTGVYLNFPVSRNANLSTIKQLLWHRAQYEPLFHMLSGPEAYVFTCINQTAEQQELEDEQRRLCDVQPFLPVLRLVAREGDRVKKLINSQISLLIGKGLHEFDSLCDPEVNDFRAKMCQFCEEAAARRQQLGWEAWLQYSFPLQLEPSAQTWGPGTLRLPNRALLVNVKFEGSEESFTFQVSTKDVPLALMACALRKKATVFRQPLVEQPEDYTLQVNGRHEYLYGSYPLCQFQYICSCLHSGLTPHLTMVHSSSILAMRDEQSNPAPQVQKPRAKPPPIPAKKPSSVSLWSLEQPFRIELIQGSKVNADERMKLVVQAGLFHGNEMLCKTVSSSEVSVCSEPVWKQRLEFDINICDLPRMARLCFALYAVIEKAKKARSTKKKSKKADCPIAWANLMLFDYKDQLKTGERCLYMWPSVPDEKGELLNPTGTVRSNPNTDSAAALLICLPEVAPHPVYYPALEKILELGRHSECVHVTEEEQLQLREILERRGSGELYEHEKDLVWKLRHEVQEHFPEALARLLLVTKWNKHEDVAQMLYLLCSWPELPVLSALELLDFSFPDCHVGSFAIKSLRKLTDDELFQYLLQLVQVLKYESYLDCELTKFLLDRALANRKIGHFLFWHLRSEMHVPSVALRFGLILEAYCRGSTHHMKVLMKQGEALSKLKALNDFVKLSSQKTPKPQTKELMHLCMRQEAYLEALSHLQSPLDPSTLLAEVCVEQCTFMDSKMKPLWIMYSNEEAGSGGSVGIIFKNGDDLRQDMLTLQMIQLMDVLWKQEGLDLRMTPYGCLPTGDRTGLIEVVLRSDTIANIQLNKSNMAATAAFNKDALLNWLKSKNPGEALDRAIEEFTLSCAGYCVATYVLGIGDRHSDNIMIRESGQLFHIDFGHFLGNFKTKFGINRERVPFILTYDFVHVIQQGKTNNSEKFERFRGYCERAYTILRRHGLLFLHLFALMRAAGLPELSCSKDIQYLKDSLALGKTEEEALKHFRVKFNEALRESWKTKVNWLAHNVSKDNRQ
PIK3CB (Human), sequence (P42338 whole entry, looked up): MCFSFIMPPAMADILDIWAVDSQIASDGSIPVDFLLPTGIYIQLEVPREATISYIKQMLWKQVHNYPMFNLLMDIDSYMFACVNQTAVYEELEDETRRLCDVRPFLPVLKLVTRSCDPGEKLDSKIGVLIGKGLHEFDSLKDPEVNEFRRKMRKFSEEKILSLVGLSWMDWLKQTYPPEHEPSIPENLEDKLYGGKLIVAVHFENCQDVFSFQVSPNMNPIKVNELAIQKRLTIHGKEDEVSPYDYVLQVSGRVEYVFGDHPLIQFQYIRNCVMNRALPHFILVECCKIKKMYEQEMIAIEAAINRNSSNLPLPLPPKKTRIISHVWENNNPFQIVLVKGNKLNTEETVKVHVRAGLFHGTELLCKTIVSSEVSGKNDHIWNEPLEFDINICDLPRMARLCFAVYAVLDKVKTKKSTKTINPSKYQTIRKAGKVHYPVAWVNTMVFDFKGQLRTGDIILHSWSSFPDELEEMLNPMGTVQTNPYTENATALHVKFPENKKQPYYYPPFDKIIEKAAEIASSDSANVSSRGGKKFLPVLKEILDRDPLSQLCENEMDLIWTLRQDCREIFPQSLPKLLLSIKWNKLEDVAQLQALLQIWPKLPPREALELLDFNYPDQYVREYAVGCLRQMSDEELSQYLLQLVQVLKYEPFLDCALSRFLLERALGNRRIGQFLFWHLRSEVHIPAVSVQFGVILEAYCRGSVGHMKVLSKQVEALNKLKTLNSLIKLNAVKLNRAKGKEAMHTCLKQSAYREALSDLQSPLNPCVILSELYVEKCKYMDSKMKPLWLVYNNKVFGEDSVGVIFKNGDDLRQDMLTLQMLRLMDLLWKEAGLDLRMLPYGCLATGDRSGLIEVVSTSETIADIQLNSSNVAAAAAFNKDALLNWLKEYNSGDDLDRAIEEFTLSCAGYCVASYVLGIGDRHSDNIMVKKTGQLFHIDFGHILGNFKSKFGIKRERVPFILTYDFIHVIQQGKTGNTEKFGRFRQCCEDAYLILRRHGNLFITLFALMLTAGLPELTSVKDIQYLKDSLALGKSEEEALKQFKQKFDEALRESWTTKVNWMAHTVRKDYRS
PIK3CG (human), sequence (P48736 whole entry, looked up): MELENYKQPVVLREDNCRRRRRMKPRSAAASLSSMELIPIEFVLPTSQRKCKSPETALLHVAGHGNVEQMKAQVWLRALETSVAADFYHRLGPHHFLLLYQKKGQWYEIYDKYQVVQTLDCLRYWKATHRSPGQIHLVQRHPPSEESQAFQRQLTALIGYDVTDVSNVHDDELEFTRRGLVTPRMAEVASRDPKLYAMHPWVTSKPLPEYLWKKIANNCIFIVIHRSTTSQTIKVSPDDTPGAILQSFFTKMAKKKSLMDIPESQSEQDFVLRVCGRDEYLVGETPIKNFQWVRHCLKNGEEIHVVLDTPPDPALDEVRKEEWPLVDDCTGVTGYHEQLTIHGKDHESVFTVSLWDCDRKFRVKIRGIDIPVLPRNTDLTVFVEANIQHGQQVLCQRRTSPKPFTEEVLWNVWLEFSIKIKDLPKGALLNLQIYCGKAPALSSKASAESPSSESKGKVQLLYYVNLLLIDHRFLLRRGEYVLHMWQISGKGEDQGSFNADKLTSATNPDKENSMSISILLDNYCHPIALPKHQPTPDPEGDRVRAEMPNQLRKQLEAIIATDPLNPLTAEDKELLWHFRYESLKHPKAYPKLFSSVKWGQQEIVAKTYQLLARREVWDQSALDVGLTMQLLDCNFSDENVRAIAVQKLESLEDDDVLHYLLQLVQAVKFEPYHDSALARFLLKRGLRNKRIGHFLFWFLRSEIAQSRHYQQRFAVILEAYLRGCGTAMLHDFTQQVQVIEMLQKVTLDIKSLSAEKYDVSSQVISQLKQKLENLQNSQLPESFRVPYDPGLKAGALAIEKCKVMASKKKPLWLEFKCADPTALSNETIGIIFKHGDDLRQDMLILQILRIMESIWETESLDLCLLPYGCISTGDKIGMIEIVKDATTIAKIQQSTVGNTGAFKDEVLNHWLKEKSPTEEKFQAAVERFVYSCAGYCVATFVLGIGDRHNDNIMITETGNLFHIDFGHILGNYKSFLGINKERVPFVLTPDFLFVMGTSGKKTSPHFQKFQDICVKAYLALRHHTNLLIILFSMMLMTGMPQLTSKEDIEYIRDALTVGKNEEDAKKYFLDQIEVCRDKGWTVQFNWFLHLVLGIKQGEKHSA

| pIC50 (PIK3CG (human) [1]) | pIC50 (PIK3CA (human)) | pIC50 (PIK3CG (human) [2]) | pIC50 (PIK3CD (Human)) | pIC50 (PIK3CB (Human)) | pIC50 (PIK3CG (human) [3]) | Compound |
| --- | --- | --- | --- | --- | --- | --- |
|  | 7.40 | 8.30 | 7.40 | 6.00 |  | Cc1ncc(-c2nc(-c3cc(S(=O)(=O)NCC(F)(F)F)ccc3C)cnc2N)s1 |
| 6.84 |  |  |  |  |  | Cc1ncc(-c2nc(-c3cc(S(=O)(=O)NCC4COCCN4C)ccc3C)cnc2N)s1 (configuration not stated) |
|  | 5.80 | 6.09 | 5.35 | 5.57 |  | CN[C@H]1CCC[C@@H]1NS(=O)(=O)c1ccc(C)c(-c2cnc(N)c(-c3ccnc(C)c3)n2)c1 |
| 7.20 | 6.74 | 7.29 | 5.77 | 5.28 |  | Cc1cc(-c2nc(-c3cc(S(=O)(=O)N[C@H]4CC[C@H](N)CC4)ccc3C)cnc2N)ccn1 |
|  | 5.96 | 7.09 | 6.48 | < 5.04 |  | Cc1ccc(S(=O)(=O)NCC(C)(C)CO)cc1-c1cnc(N)c(-c2nc(C3CC3)no2)n1 |
|  | 6.14 | 6.96 | 6.04 | 5.12 |  | CN[C@@H]1CCC[C@H]1NS(=O)(=O)c1ccc(C)c(-c2cnc(N)c(-c3ccnc(C)c3)n2)c1 |
|  | 5.92 | 7.21 | 5.77 | < 5.00 |  | Cc1ccc(S(=O)(=O)NCC(C)(C)O)cc1-c1cnc(N)c(-c2nc(C(C)C)no2)n1 |
| < 5.00 |  |  |  |  |  | Cc1cc(-c2nc(-c3cc(S(=O)(=O)NCC4CCN(C)C4)ccc3C)cnc2N)ccn1 (configuration not stated) |
| 6.89 | 6.70 | 7.92 | 6.53 | < 5.04 |  | Cc1ccc(S(=O)(=O)NCCC(C)(C)O)cc1-c1cnc(N)c(-c2nc(C3CC3)no2)n1 |

More lines, now with the values behind:

| Compound | pIC50 (PIK3CG (human) [1]) | pIC50 (PIK3CA (human)) | pIC50 (PIK3CG (human) [2]) | pIC50 (PIK3CD (Human)) | pIC50 (PIK3CB (Human)) | pIC50 (PIK3CG (human) [3]) |
| --- | --- | --- | --- | --- | --- | --- |
| Cc1ccc(S(=O)(=O)NC[C@H]2CCC(C)(C)O2)cc1-c1cnc(N)c(-n2cncn2)n1 | 6.39 |  |  |  |  |  |
| Cc1ccc(S(=O)(=O)N[C@H]2CC[C@@](C)(O)CC2)cc1-c1cnc(N)c(-n2cncn2)n1 | 6.99 and 6.87 |  |  |  |  |  |
| Cc1ccc(S(=O)(=O)NCC[C@@H](O)C(F)(F)F)cc1-c1cnc(N)c(-c2cn(C)nc2C)n1.Cc1ccc(S(=O)(=O)NCC[C@H](O)C(F)(F)F)cc1-c1cnc(N)c(-c2cn(C)nc2C)n1 | 7.22 |  |  |  |  | 6.47 |
| Cc1ccc(S(=O)(=O)NC[C@H]2CNC[C@@H]2O)cc1-c1cnc(N)c(-n2cncn2)n1 |  | 6.02 | 6.85 | 5.62 | 6.14 |  |
| Cc1ccc(S(=O)(=O)NCC2(O)CCOCC2)cc1-c1cnc(N)c(-n2cncn2)n1 | 6.41 | 6.18 | 7.03 | 5.82 | 5.84 |  |
| Cc1ccc(S(=O)(=O)NC[C@@H]2COCCN2C)cc1-c1cnc(N)c(-c2cn(C)nc2C)n1.Cc1ccc(S(=O)(=O)NC[C@H]2COCCN2C)cc1-c1cnc(N)c(-c2cn(C)nc2C)n1 |  |  |  |  |  | 6.62 |
| Cc1ccc(S(=O)(=O)N[C@H]2CC3(C[C@@H](O)C3)C2)cc1-c1cnc(N)c(-c2cn(C)nc2C)n1 (some centres not stated) | 7.40 |  |  |  |  |  |
